Reference: a melting point compilation (Tetko et al.; mined from patent text by program, amines drawn as free bases though some values may be those of a salt)

SMILES	melting point [°C]
Cc1cc2c(cc1C13CC1CCC3=O)C(C)(C)CCC2(C)C (stereo unspecified)	152 to 154
Cc1cc(Br)ccc1-n1c(C(F)(F)F)nn(C)c1=O	80 to 83
Oc1ccc(-c2cccnc2)cc1O	288 to 290
Clc1ccc(/C=C/c2cc(Cl)cc(Cl)c2)cc1	94 to 96
C=Cc1cc(OC)cc2cc(-c3ccc(OC)cc3)oc12	182 to 184
CC(C(=O)O)c1ccc2c(c1)C(c1ccccc1)=NCC(=O)N2 (stereo unspecified)	252 to 255
CN1C(=O)Cc2ccsc2S1(=O)=O	136 to 137
CCC(C)n1c(Nc2cc(C(F)(F)F)ccc2C(F)(F)F)nc(C(F)(F)F)c(Cl)c1=O (stereo unspecified)	133 to 135
CCOC(=O)C1=C(c2ccc(-n3c(C)nc4cnccc43)cc2)NC(OC)=NC1c1ccccc1Cl (stereo unspecified)	228 to 232
Cc1ccc(CSc2nc3cc4c(cc3[nH]2)C(C)(C)C(=O)C4(C)C)nc1	220 to 222
COc1ccc(-c2nc(N)ncc2-c2ccc(=O)n(C(C)C)n2)cc1F	174
Nn1c(=O)n(-c2cc(Cl)ccc2O)c2ccc(C(F)(F)F)cc21	228 to 230
CC(C)C[C@@H](C(=O)N1CCN(C(c2ccc(F)cc2)c2ccc(F)cc2)CC1)N(C)C1CCOCC1	56 to 65
CCOP(=O)(OCC)C(CNc1nc(C)cc(Oc2ccc(Cl)cc2Cl)n1)P(=O)(OCC)OCC	76 to 77
Fc1ccc(C(Cl)(c2ccccc2)c2ccccc2)cc1	88
Cc1nc(Nc2ccccc2)sc1-c1ccc(Cl)c([N+](=O)[O-])c1	162 to 165
COc1ccc(Cl)c(S(=O)(=O)NC(=O)c2cn3cc(C(F)(F)F)cc(Br)c3n2)c1	191 to 192
COc1ccc(C(=O)Nc2ccccc2Nc2ccccc2)cc1	148 to 150
CN1C(=O)c2cccnc2Nc2cc(C(F)(F)F)ccc21	169 to 172
COc1cc2c(cc1S(=O)(=O)c1ccc(OCc3ccc(Cl)cc3)cc1)CCN(C)CC2	120 to 122
COc1ccc(OS(=O)(=O)c2ccc(N3CCN(C)C3=O)cc2)cc1	183 to 185
CSC1C(=O)Nc2ccc(C3=NNC(=O)SC3C)cc21 (stereo unspecified)	159
Oc1ncn(-c2ccccc2)n1	281 to 282
CN1N=C(c2ccccc2)CC1=O	211
CC(=O)N(C)c1cccc(-c2ccnc3c(C(=O)c4ccccc4)cnn23)c1	162 to 164
c1ccc2[nH]c(-c3cc[nH]n3)nc2c1	335 to 338
CN1CC=C(c2c[nH]c3ccc(NC(=N)c4ccco4)cc23)CC1	212 to 215
COc1cc(-c2ccc(Cl)s2)cc2oc(=O)c(C)c(C)c12	152 to 154
O=C1NC(=O)C(c2cccc(C(F)(F)F)c2)O1 (stereo unspecified)	93 to 96

Continued, values first:

melting point [°C]	SMILES
181 to 182	CCN(CC)c1ccc(N=Nc2ccc(C#N)c(C#N)c2)c(NC(C)=O)c1
47 to 49	C#CCN(C)Cc1ccc([N+](=O)[O-])cc1
71 to 73	CCCC(=O)NCCC1CCc2ccc3c(c21)OCO3 (stereo unspecified)
126 to 129	CCCCCCCC(=O)Oc1ccc(-c2nc(-c3ccc(N(C)C)cc3)c(C)[nH]2)cc1OC
65 to 66	COC(=O)c1ccc(-c2cc(C)n(Cc3ccccc3)n2)o1
122	O=C1N(CCCl)c2ccc(F)cc2C12SCCCS2
172	CC(C)OC(=O)CCC1CCCCC1(c1ccc(O)c(C(C)(C)C)c1)c1ccc(O)c(C(C)(C)C)c1 (stereo unspecified)
> 300	CC(=O)N(C)c1c(I)c(NC(=O)CS(=O)(=O)CC(=O)O)c(I)c(C(=O)O)c1I
156 to 159	CN(C)S(=O)(=O)c1cc(-c2csc(=Nc3ccccc3)n2C2CC2)ccc1Cl
208 to 209	CCn1c(=O)c2c(nc(/C=C/c3ccc(OC(=O)c4ccccc4)cc3)n2C)n(CC)c1=O
302 to 304	O=C1c2ccc(O)cc2C(=O)N1c1ccc(O)cc1
85	O=C(NCCOc1ccccn1)C1Cc2ccccc2N1S(=O)(=O)c1ccc(-c2cccc(C(F)(F)F)c2)cc1 (stereo unspecified)
193 to 196	COC(=O)NC(C)=NS(=O)(=O)NC(C)C
218 to 219	CCCC(=O)c1ccc(NC(=S)N2CCN(c3ncnc4cc(OC)c(OC)cc34)CC2)cc1
153 to 155	O=C(NCCc1cccc2ccc(OC3CCCCC3)cc12)C1CC1
207	CN(C)CC(=Cc1ccc(/C=C/C(=O)O)cc1)O[Si](C)(C)C(C)(C)C
121 to 122	CCOC(=O)c1nn(-c2ccc(Cl)cc2Cl)c(-c2cccs2)c1C
100 to 101	CCCc1nn(-c2ccc(C(F)(F)F)cn2)cc1CCCOc1ccccc1CC(=O)O
110 to 115	Nc1c(Cl)cc(C(=O)Cl)cc1C(F)(F)F
92 to 93	Cn1nc(CC2CC2)c2sc(Cc3cccc(C(F)(F)F)c3)c(O)c2c1=O
101	CC(=NCc1ccc(Cl)cc1Cl)c1ccc(OCC(O)(Cn2cncn2)C(C)(C)C)cc1 (stereo unspecified)

melting point [°C]	SMILES
173 to 175	Cc1nc[nH]c1CSCCNC(=N)NCC(C)SCc1[nH]cnc1C (stereo unspecified)
86 to 87	CCOc1cc(C(CC(=O)OC)N2C(=O)c3ccccc3C2=O)ccc1OC (stereo unspecified)
78 to 83	C[C@H]1N(C(=O)c2ccc(OCC(F)(F)C(F)F)cc2)CC(=O)O[C@@]1(Cn1cncn1)c1ccc(F)cc1F (relative stereo)
203 to 205	CCN(CC)C(=O)c1cc(C(C)(C)C)c(OC(=O)c2cc(C(C)(C)C)c(O)c(C(C)(C)C)c2)c(C(C)(C)C)c1
196 to 199	Cc1nc2cc3c(cc2c(=O)[nH]1)C(N(C)c1ccc(C(=O)NC(CCc2nnn(CC(=O)O)n2)C(=O)O)c(F)c1)CC3 (mixture of isomers)
179 to 181	COC(=O)c1cc2c3ccccc3n(C(C)=O)c2s1
29 to 31	CC(C)(C)Oc1ccc(CCC(=O)O)cc1
145 to 146	Cc1c(CC(=O)O)c2cc(OCc3csc(-c4ccc(Cl)cc4)n3)ccc2n1Cc1ccc(Cl)cc1
155 to 156	CCNc1cc(C(C)=NO)ccn1
112 to 114	CCCCSc1cc(C(=O)OCC#N)cc(S(N)(=O)=O)c1Cc1ccccc1
168	CCSc1nc(=O)n(C(=O)Nc2cccc(Cl)c2)s1
90 to 91	CCCCCCCCCCCCCCOc1ccc(CC(=O)NCCc2ccccn2)cc1
165 to 166	Cn1nc(C(F)(F)F)c(C(=O)O)c1F
111 to 112	CCOC(=O)CCc1cn(Cc2cccc(C(=O)Nc3cccnc3)c2)nc1-c1ccccc1
146 to 150	COC(=O)CCc1cc2cc(Cl)ccc2n1S(=O)(=O)c1cc(C)cc(C)c1
112 to 114	N#CCCN(C=O)CC(=O)O
88 to 88.5	CCOP(=O)(Cc1cc(C=O)ccc1O)OCC
205 to 207	CS(=O)(=O)c1ccc(-c2cnn(CC(O)c3ccccc3)c(=O)c2-c2ccc(F)cc2)cc1 (stereo unspecified)
22	OCCCCOCCCCOCCCCOCCCCO
108 to 110	CC(=N)N(C)C1CCCCC1
168 to 169	CC(C)CNCc1cc2cc(NC(=O)c3ccc(C#CC4(O)CCC4)cc3)ccc2n1C
